Reference: patent US11839613B2, “Pyrimidine derivatives as PGE2 receptor modulators” (IDORSIA PHARMACEUTICALS LTD, priority 2017, dated 2023)
pIC50: −log10 of the molar value.

Assays:
EP4 = EP4 (Homo sapiens (Human), UniProt P35408); test: hEP4 cAMP assay (BT549 breast cancer cells, HTRF cAMP); type: cell-based; details: antagonistic activity, PGE2 6 nM
Method in brief: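 BT549 breast cancer cells (endogenous EP4) in HBSS/20 mM HEPES/0.2% BSA/2 mM IBMX preincubated 45 min at RT with compound, then stimulated 30 min at RT with 6 nM PGE2 (final). cAMP read by competitive HTRF immunoassay, signal inversely proportional to cAMP.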

PTGER4 (EP4) = PTGER4 (EP4) (Homo sapiens (Human), UniProt P35408); test: cell-based
PTGER4 (EP4), sequence (P35408 whole entry): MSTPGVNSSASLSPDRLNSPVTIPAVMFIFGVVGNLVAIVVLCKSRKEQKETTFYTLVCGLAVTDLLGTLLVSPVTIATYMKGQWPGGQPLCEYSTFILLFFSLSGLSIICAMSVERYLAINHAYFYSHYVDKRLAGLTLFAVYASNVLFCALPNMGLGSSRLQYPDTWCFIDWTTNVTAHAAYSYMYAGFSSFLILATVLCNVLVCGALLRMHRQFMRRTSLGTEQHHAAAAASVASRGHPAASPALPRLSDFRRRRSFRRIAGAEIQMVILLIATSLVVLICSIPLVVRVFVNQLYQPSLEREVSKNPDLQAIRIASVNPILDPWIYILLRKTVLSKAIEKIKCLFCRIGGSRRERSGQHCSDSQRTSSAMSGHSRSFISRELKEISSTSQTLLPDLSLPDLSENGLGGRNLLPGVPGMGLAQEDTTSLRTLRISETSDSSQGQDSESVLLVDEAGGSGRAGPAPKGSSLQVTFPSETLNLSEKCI

EP2 = EP2 (Homo sapiens (Human), UniProt P43116); test: hEP2 cAMP assay (SF295 glioblastoma cells, HTRF cAMP); type: cell-based; details: antagonistic activity
EP2, sequence (P43116 whole entry): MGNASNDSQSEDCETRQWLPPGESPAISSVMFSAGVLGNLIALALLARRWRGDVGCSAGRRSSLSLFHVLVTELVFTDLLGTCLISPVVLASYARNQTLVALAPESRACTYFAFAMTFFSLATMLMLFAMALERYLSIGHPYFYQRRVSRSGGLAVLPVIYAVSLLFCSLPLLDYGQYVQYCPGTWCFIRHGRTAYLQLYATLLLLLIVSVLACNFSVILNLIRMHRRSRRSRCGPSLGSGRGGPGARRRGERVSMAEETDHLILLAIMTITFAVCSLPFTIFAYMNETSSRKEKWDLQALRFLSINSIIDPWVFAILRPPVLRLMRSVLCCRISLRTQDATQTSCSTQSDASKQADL
Method in brief: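 PGE2-driven cAMP accumulation was measured by HTRF in SF295 cells, which express endogenous EP2 only. Cells in assay buffer with 2 mM IBMX were pre-incubated 45 min at RT, then incubated 30 min at RT. Detection used competition between cellular cAMP and d2-cAMP for a cryptate anti-cAMP antibody.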

PTGER2 (EP2) = PTGER2 (EP2) (Homo sapiens (Human), UniProt P43116); test: hEP2 b-arrestin assay (PathHunter HEK 293 PTGER2 b-arrestin cells); type: cell-based; details: antagonistic activity, beta-arrestin assay; read-out: hEP2 b-arr IC50
PTGER2 (EP2), sequence (P43116 whole entry): as above
Protocol: Plate is pre-incubated 15 minutes at 37° C. Then five microliters of PGE2 (final conc. 5 μM) are transferred into the assay plate. Plate is incubated 120 minutes at 37° C.
(each concentration is measured in duplicate)

EP4, sequence (P35408 whole entry): as the sequence (P35408 whole entry) above

| pIC50 (EP4) | pIC50 (PTGER4 (EP4)) | pIC50 (EP2) | pIC50 (PTGER2 (EP2)) | Compound |
| --- | --- | --- | --- | --- |
| 7.14 | 7.28 | 7.12 | 7.40 | C#Cc1cc2ccccc2cc1CCNc1cc(-c2ccc(C(=O)O)c(OCC)c2)ncn1 [Ex 105, 2-Ethoxy-4-{6-[2-(3-ethynyl-naphthalen-2-yl)-ethylamino]-pyrimidin-4-yl}-benzoic acid] |
| 7.09 | 7.05 | 7.31 | 6.94 | CCOc1cc(-c2cc(NCCc3ccc4c(c3)OCO4)ncn2)sc1C(=O)O [Ex 111, 5-[6-(2-Benzo[1,3]dioxol-5-yl-ethylamino)-pyrimidin-4-yl]-3-ethoxy-thiophene-2-carboxylic acid] |
| 6.97 | 6.79 | 7.18 | 7.09 | CSc1cc(-c2cc(NCCc3ccc4sccc4c3)ncn2)ccc1C(=O)O [Ex 132, 4-[6-(2-Benzo[b]thiophen-5-yl-ethylamino)-pyrimidin-4-yl]-2-methylsulfanyl-benzoic acid] |
| 6.84 | 6.21 | 7.46 | 7.49 | CCOc1cc(-c2cc(NCCc3cc4ccoc4cc3OC)ncn2)ccc1C(=O)O [Ex 151, 2-Ethoxy-4-{6-[2-(6-methoxy-benzofuran-5-yl)-ethylamino]-pyrimidin-4-yl}-benzoic acid] |
| 6.84 | 6.45 | 6.95 | 6.92 | COc1cc2ccsc2cc1CCNc1cc(-c2ccc(C(=O)O)c(SC)c2)ncn1 [Ex 152, 4-{6-[2-(5-Methoxy-benzo[b]thiophen-6-yl)-ethylamino]-pyrimidin-4-yl}-2-methylsulfanyl-benzoic acid] |
| 6.82 | 6.52 | 6.79 | 6.63 | CCOc1cc(-c2cc(NCCc3ccc4sccc4c3)ncn2)ccc1C(=O)O [Ex 155, 4-[6-(2-Benzo[b]thiophen-5-yl-ethylamino)-pyrimidin-4-yl]-2-ethoxy-benzoic acid] |
| 6.80 | 6.73 | 7.80 | 7.64 | CCSc1cc(-c2cc(NCCc3cc4ccoc4cc3OC)ncn2)ccc1C(=O)O [Ex 158, 2-Ethylsulfanyl-4-{6-[2-(6-methoxy-benzofuran-5-yl)-ethylamino]-pyrimidin-4-yl}-benzoic acid] |
| 6.77 | 6.89 | 6.67 | 6.82 | Cc1c(CCNc2cc(-c3ccc(C(=O)O)c(OC4CCC4)c3)ncn2)ccc2ccccc12 [Ex 168] |
| 6.74 | 6.54 | 6.86 | 6.80 | CCOc1cc(-c2cc(NCCc3ccc4ccccc4c3C)ncn2)ccc1C(=O)O [Ex 172, 2-Ethoxy-4-{6-[2-(1-methyl-naphthalen-2-yl)-ethylamino]-pyrimidin-4-yl}-benzoic acid] |

Further lines, the molecule ahead of its results:

| Compound | pIC50 (EP4) | pIC50 (PTGER4 (EP4)) | pIC50 (EP2) | pIC50 (PTGER2 (EP2)) |
| --- | --- | --- | --- | --- |
| CCSc1cc(-c2cc(NCCc3cc4c(cc3OC)OCCO4)ncn2)ccc1C(=O)O [Ex 110, 2-Ethylsulfanyl-4-{6-[2-(7-methoxy-2,3-dihydro-benzo[1,4]dioxin-6-yl)-ethylamino]-pyrimidin-4-yl}-benzoic acid] | 7.09 | 6.75 | 7.21 | 7.25 |
| CCOc1cc(-c2cc(NCCc3cc4ccoc4cc3OC)ncn2)ccc1OCC(=O)O [Ex 112, (2-Ethoxy-4-{6-[2-(6-methoxy-benzofuran-5-yl)-ethylamino]-pyrimidin-4-yl}-phenoxy)-acetic acid] | 7.09 | 6.90 | 7.16 | 7.40 |
| COc1cc2c(cc1CCNc1cc(-c3ccc(C(=O)O)c(SC)c3)ncn1)OCCO2 [Ex 116, 4-{6-[2-(7-Methoxy-2,3-dihydro-benzo[1,4]dioxin-6-yl)-ethylamino]-pyrimidin-4-yl}-2-methylsulfanyl-benzoic acid] | 7.07 | 6.87 | 7.64 | 7.12 |
| CCOc1cc(-c2cc(NCCc3cc4c(cc3OC(F)F)OCO4)ncn2)sc1C(=O)O [Ex 119, 5-{6-[2-(6-Difluoromethoxy-benzo[1,3]dioxol-5-yl)-ethylamino]-pyrimidin-4-yl}-3-ethoxy-thiophene-2-carboxylic acid] | 7.05 | 6.95 | 7.39 | 7.49 |
| COc1cc2ccoc2cc1CCNc1cc(-c2ccc(C(=O)O)c(OC3CCC3)c2)ncn1 [Ex 124, 2-Cyclobutoxy-4-{6-[2-(5-methoxy-benzofuran-6-yl)-ethylamino]-pyrimidin-4-yl}-benzoic acid] | 7.00 | 6.67 | 7.02 | 6.95 |
| O=C(O)c1ccc(-c2cc(NCCc3ccc4sccc4c3)ncn2)cc1OC1CCC1 [Ex 125, 4-[6-(2-Benzo[b]thiophen-5-yl-ethylamino)-pyrimidin-4-yl]-2-cyclobutoxy-benzoic acid] | 7.00 | 6.65 | 6.89 | 6.94 |
| Cc1c(CCNc2cc(-c3cc4c(C(=O)O)cccc4[nH]3)ncn2)ccc2ccccc12 [Ex 127, 2-{6-[2-(1-Methyl-naphthalen-2-yl)-ethylamino]-pyrimidin-4-yl}-1H-indole-4-carboxylic acid] | 6.99 | 6.96 | 7.00 | 6.74 |
| CCOc1cc2c(cc1CCNc1cc(-c3ccc(C(=O)O)c(SC)c3)ncn1)OCCO2 [Ex 137, 4-{6-[2-(7-Ethoxy-2,3-dihydro-benzo[1,4]dioxin-6-yl)-ethylamino]-pyrimidin-4-yl}-2-methylsulfanyl-benzoic acid] | 6.92 | 6.91 | 8.40 | 7.85 |
| CCOc1cc(-c2cc(NCCc3cc4ccoc4cc3F)ncn2)ccc1OCC(=O)O [Ex 142, (2-Ethoxy-4-{6-[2-(6-fluoro-benzofuran-5-yl)-ethylamino]-pyrimidin-4-yl}-phenoxy)-acetic acid] | 6.90 | 6.74 | 6.75 | 6.92 |
| CCCCOc1cc(-c2cc(NCCc3ccc4ccccc4c3C)ncn2)cc(F)c1C(=O)O [Ex 150] | 6.84 | 6.65 | 6.66 | 6.64 |
| CCOc1cc(-c2cc(NCCc3ccc4ccccc4c3C)ncn2)ccc1-c1nnn[nH]1 [Ex 156] | 6.81 | 7.44 | 6.66 | 6.97 |
| CCOc1cc(-c2cc(NCCc3c(OC)cc4occc4c3C)ncn2)ccc1CC(=O)O [Ex 157, (2-Ethoxy-4-{6-[2-(6-methoxy-4-methyl-benzofuran-5-yl)-ethylamino]-pyrimidin-4-yl}-phenyl)-acetic acid] | 6.81 | 7.05 | 7.66 | 8.15 |
| CCOc1cc(-c2cc(NCCc3cc4occc4cc3OC)ncn2)ccc1OCC(=O)O [Ex 159, (2-Ethoxy-4-{6-[2-(5-methoxy-benzofuran-6-yl)-ethylamino]-pyrimidin-4-yl}-phenoxy)-acetic acid] | 6.80 | 6.85 | 6.75 | 6.74 |
| CCCCOc1cc(-c2cc(NCCc3ccc4ccccc4c3C)ncn2)ccc1C(=O)O [Ex 169, 2-Butoxy-4-{6-[2-(1-methyl-naphthalen-2-yl)-ethylamino]-pyrimidin-4-yl}-benzoic acid] | 6.77 | 6.57 | 6.90 | 6.85 |
